Test results as given in PMC11511194, “Key Factors for Improving Predictive Accuracy and Avoiding Overparameterization of the PBPK Absorption Model in Food Effect Studies of Weakly Basic Water-Insoluble Compounds in Immediate Release Formulations” (Pharmaceutics, 2024).
Converted amounts (≈) assume the structure as drawn. Where two headings read alike, the source gives them in different places.

Legend:
[1] = Two-stage biorelevant dissolution (transfer test FaSSGF to FaSSIF); assay type: physicochemical; conditions: formulation, gastric to intestinal chamber in vitro
Experimental: Because the solubility of weakly basic water-insoluble compounds is higher in the acidic gastric environment compared to the near-neutral intestinal environment, and that bile salts can enhance the solubility of poorly soluble drugs in the intestine, a two-stage dissolution test was performed to explore the drug transfer process from the stomach to the intestine. The transfer apparatus comprised two USP 2 vessels representing the gastric and intestinal chambers, which are interconnected via a peristaltic pump to simulate first-order gastric emptying dynamics. […] Additional samples in the two-stage dissolution test were analyzed every minute with the same instrument. […]
Precipitation parameters, such as critical supersaturation ratio (CSC) and precipitation rate constant (PRC), were evaluated when precipitation occurs in the neutral intestinal environment after the mixture of solution and undissolved substance is transferred from the gastric chamber in vitro. These parameters were evaluated by fitting the two-stage dissolution profile according to the crystallization kinetics equations [28, 29, 30]. […] The calibrated permeability of drugs, as determined using the Caco-2 Transwell model, was used to represent the permeability of drugs in vivo [31]. […]

physchem = conditions: for User log K m:w, ion / User log K m:w, neutral: bile micelle to buffer partition, Evaluated by SIVA software
Experimental: In this manuscript, PBPK absorption models were developed using SimCYP software (version 20, Sheffield, UK, Certara Company), while the primary solubility parameters were evaluated utilizing SIVA software (version 4, Sheffield, UK, Certara Company). The comprehensive process of parameter evaluation is as follows: Intrinsic solubility (So) and salt limiting solubility factor (SF) values were obtained according to the solubility of the API in different aqueous media and the Henderson–Hasselbalch equation (Equation (1)). Subsequently, the bile micelle to buffer partition coefficients (Km:w) in both ionized (Km:w, ionized) and un-ionized (Km:w, un-ionized) states were evaluated based on the solubility of the APIs in FaSSGF, FaSSIF, and FeSSIF media, employing Equation (1). (1) STot=So×Soscalart×1+BSt/CH2O×Km:w, un-ionized+Sit×1+BSt/CH2O×Km:w, ionized+Sbound,excipt where t is the time; STot is the total solubility of the drug in a given medium (aqueous or biorelevant medium); So is the intrinsic solubility of the drug; Soscalar is the scalar for So used to capture the increased solubility of the drug in a given medium; Si is the ionized aqueous solubility; [BS] is the bile salt concentration in a given biorelevant medium; CH2O is the concentration of water; Km:w, ionized/un-ionized are the bile micelle/buffer partition coefficients for ionized and un-ionized species, respectively; and Sbound, excip is the amount of drug bound to the excipient at a given excipient concentration.

[2] = Equilibrium solubility of APIs in aqueous and biorelevant media; assay type: physicochemical; conditions: 37 °C
Experimental: To evaluate the effect of pH and bile salt concentration within the physiological range on the solubility of APIs, the equilibrium solubility of APIs in various aqueous and biorelevant media was comprehensively investigated. Specifically, aqueous buffers, including pH 1.0 and pH 2.0 HCl solutions; pH 3.0 and pH 4.5 acetum; and pH 5.0, pH 6.5, and pH 8.0 phosphate buffer solutions (PBS), were prepared according to the guidelines outlined in the Chinese Pharmacopoeia. Additionally, biorelevant media such as FaSSGF, FaSSIF, and FeSSIF were prepared following the prescribed method for biorelevant power. An excess amount of solid drug powder was added to vials containing 20 mL of the corresponding medium, and tests were conducted with continuous stirring at 37 °C for 24 h. Drug concentration was detected every minute through an in situ fiber-optic UV dissolution real-time monitoring system (Pion Scientific Instruments, Billerica, MA, USA). All measurements were performed in triplicate.

Caco-2 = conditions: Apical pH : Basolateral pH 7.4 : 7.4, Passive&Active, cited from earlier work
[3] = Particle size distribution of the APIs (laser diffraction, dry method); assay type: physicochemical; conditions: API bulk drug
Experimental: The particle size of the API directly influences the dissolution rate of formulations and the overall bioavailability of the compound, making it a necessary parameter for establishing the PBPK absorption model. To determine the particle size distributions of the APIs employed in the formulation of rivaroxaban, ticagrelor, and PB-201, the bulk drugs used in the corresponding formulations were measured by the dry method with a Malvern Mastersizer laser diffraction size analyzer (Master 2000, Malvern Instruments Limited, Malvern, UK). Each sample was tested once.

[4] = cited from earlier work
[5] = HCl solution, simulated gastric fluid, thermodynamic from solid, pH 1.0 HCl
[6] = HCl solution, simulated gastric fluid, thermodynamic from solid, pH 2.0 HCl
[7] = aqueous buffer, thermodynamic from solid, pH 3.0 Acetic acid buffer
[8] = aqueous buffer, thermodynamic from solid, pH 4.5 Acetic acid buffer
[9] = phosphate buffer solution (PBS), aqueous buffer, thermodynamic from solid, pH 5.0 PBS
[10] = phosphate buffer solution (PBS), pH 6.5 PBS
[11] = phosphate buffer solution (PBS), pH 8.0 PBS
[12] = thermodynamic from solid, pH 5.0 FeSSIF
[13] = thermodynamic from solid, pH 6.5 FaSSIF

behaviour after transfer from FaSSGF to FaSSIF [1]	User log K m:w, ion (physchem)	User log K m:w, neutral (physchem)	solubility thermodynamic at 24 h [2, 5] [µg/mL]	solubility thermodynamic at 24 h [2, 6] [µg/mL]	solubility thermodynamic at 24 h [2, 7] [µg/mL]	solubility thermodynamic at 24 h [2, 8] [µg/mL]	solubility thermodynamic at 24 h ([2]; pH 1.6 FaSSGF) [µg/mL]	solubility thermodynamic at 24 h [2, 9] [µg/mL]	solubility thermodynamic at 24 h [2, 10] [µg/mL]	solubility thermodynamic at 24 h [2, 11] [µg/mL]	solubility thermodynamic at 24 h [2, 12] [µg/mL]	solubility thermodynamic at 24 h [2, 13] [µg/mL]	D (0.1) [3] [μm]	D (0.5) [3] [μm]	D (0.9) [3] [μm]	SMILES	further results
continued to dissolve	8.226	5.941	18 (≈ 34.4 µM)	8.04 (≈ 15.4 µM)	11.6 (≈ 22.2 µM)	7.47 (≈ 14.3 µM)	14.2 (≈ 27.2 µM)	6.35 (≈ 12.2 µM)	5.97 (≈ 11.4 µM)	5.52 (≈ 10.6 µM)	4050 (≈ 7750 µM)	306 (≈ 586 µM)	3.045	6.926	13.605	CCCSc1nc(N[C@@H]2C[C@H]2c2ccc(F)c(F)c2)c2nnn([C@@H]3C[C@H](OCCO)[C@@H](O)[C@H]3O)c2n1 [Ticagrelor]	Caco-2 permeability (Caco-2; supplement ref 19): 6.0 10-6cm/s; Blood-to-plasma partition ratio ([4]; ticagrelor, supplement ref 18): 0.592; Fraction unbound in plasma ([4]; ticagrelor, supplement ref 18): 0.006
continued to dissolve	3.894	3.330	6.84 (≈ 15.7 µM)	8.18 (≈ 18.8 µM)	10.6 (≈ 24.3 µM)	6.55 (≈ 15 µM)	7.5 (≈ 17.2 µM)	4.85 (≈ 11.1 µM)	5.84 (≈ 13.4 µM)	5.87 (≈ 13.5 µM)	10.6 (≈ 24.3 µM)	6.17 (≈ 14.2 µM)	3.809	7.955	15.532	O=C(NC[C@H]1CN(c2ccc(N3CCOCC3=O)cc2)C(=O)O1)c1ccc(Cl)s1 [Rivaroxaban]	solubility (physchem; aqueous buffer): 5 µg/mL (≈ 11.5 µM); Caco-2 permeability (Caco-2; supplement ref 4): 8.103 10-6cm/s; Fraction unbound in plasma ([4]; rivaroxaban, supplement ref 2): 0.065; Blood-to-plasma partition ratio ([4]; rivaroxaban, supplement ref 7): 0.714
